Results reported in patent US11944665B2, “Methods and compositions for modulating lymphatic vessels in the central nervous system” (University of Virginia Patent Foundation, priority 2016, dated 2024).

Columns and labels:
meningeal lymphatic = assay: Lymphatic drainage of fluorescent microbeads into deep cervical lymph nodes (FIG. 15); assay type: in vivo, mice; settings: pharmacological ablation, 24 h after ablation, vs PBS
Method: FIGS. 15A-E are a series of diagrams, microscope images, and graphs showing modulation of the meningeal lymphatic affects drainage into the cervical lymph nodes. […] Fluorescent microbeads (0.5 μm in diameter-5 μl) were injected in the lateral ventricle of mice at a rate of 0.5 μl/min. 30 min later, the deep cervical lymph nodes were harvested, sliced and immunostained for the presence of fluorescent beads. FIG. 15B is a pair of representative sections of deep cervical lymph nodes from sham operated (left) and ligated (right) mice immunostained for lymphatic vasculature (Lyve-1), fluorescent microbeads and Lyve-1. Note the accumulation of microbeads in the subcapsular space of the lymph nodes in the sham operated mice (left). […] N=3-4 mice per group, Student-t-test. d. Quantification of the coverage of dCLN section by fluorescent beads in PBS and Visudyne injected mice (24 h after ablation). N=3-5 mice per group, *p<0.05, Student-t-test. e. Quantification of the coverage of dCLN section by fluorescent beads in PBS and VEGF-c injected mice (5 days after VEGF-c injection). N=4 mice per group.

[1] = tested on: meningeal lymphatic vessels; assay: Visudyne ablation in old mice, OVA-A647 CSF tracer (Example 3); assay type: in vivo, C57BL/6 mice; settings: old (20-24 months-old) mice, 7 days post ablation, vs old+vehicle
Method: Injections of visudyne or vehicle (ICM), followed by a photoconversion step, were performed in adult (3 months-old) or old (20-24 months-old) C57BL/6 mice. 7 days post ablation, OVA-A647 (2.5 μg) was injected into the CSF (ICM) and mice were transcardially perfused with saline 2 h after.

meningeal lymphatics = assay: Photoablation of meningeal lymphatics, Visudyne 5 or 20 μg, 690 nm laser (FIG. 14); assay type: in vivo, mice; settings: 5 or 20 μg i.c.v., 24 hrs post-ablation
Method: Meninges were stained for Lyve-1, Prox1 and CD31 24 hrs post-ablation. […] In FIG. 14C, the top panel refers to a control, the middle mane refers to 20,000 ng of Visudyne, and the bottom panel refers to 5,000 ng of Visudyne.

nasal lymphatics = assay: Nasal lymphatics after intranasal Visudyne (Example 25); assay type: in vivo, mice; settings: 24 h after intranasal (i.n.) injection
Method: Adult mice were injected i.c.m. with Visudyne. Fifteen to thirty minutes injection, Visudyne was converted using a non-thermal 689 nm laser applied on the intact skull. In the targeted group, the laser was aimed at 5 different spots localized above the meningeal lymphatics. In the non-targeted group, the laser was aimed further away to no convert the Visudyne localized within the meningeal lymphatics.
The density of exogenously injected T cells per mm2 of dCLN in targeted and non-targeted Visudyne treated mice was quantified (FIG. 49A) (expressed as percentage of the control condition)(mean±s.e.m, n=4-6 mice/group, **p=0.0072 Student t test). Images of the nasal lymphatics (Prox1GFP—green, Lyve1—red) were obtained 24 h after laser or intranasal (i.n.) injection of Visudyne. The inset illustrate the lymphatic bundle at the base of the skull that gets ablated after Visudyne treatment. Scale bar=50 μm. The density of T cells per mm2 of dCLN was quantified (FIG. 49B) or percentage of beads coverage was quantified (FIG. 49C) in the dLCN of laser, Visudyne (i.n.)+laser and Visudyne (i.c.m.)+laser treated mice (expressed as percentage of the control condition). […] T cells were quantified in the meninges of laser and Visudyne (i.c.m.)+laser treated mice at 7 days post ablation. T cells were quantified in the meninges of laser and Visudyne (i.c.m.)+laser treated mice (FIG. 49D). […]

[2] = tested on: meningeal lymphatic vessels; assay: Visudyne ablation then repeated Aβ42 injection into CSF, meningeal aggregates (Example 8); assay type: in vivo, C57BL/6 mice; settings: Aβ42 2.5 μg every 24 h into CSF for 5 days, from 72 h after ablation, vs vehicle
Method: C57BL/6 adult mice were anesthetized and injected ICM with visudyne to induce meningeal lymphatic vessel ablation, or vehicle as a control. After the photoconversion step, mice were allowed to recover for 72 h. Then, catheters were implanted in the cisterna magna of all mice and 2.5 μg of Aβ42 were injected every 24 h into the CSF for a total of 5 days. […] Results are presented as mean±s.e.m.; n=5 per group; *P<0.05, **P<0.01, one-tailed Mann-Whitney test.

[3] = tested on: meningeal lymphatic vessels; assay: Photoablation of meningeal lymphatic vessels, multiphoton 690 nm laser through thin skull (FIG. 18); assay type: in vivo, mice; settings: 2 μl i.c.v., two hours after the ablation
Method: FIGS. 18A-D are a series of microscope images and graphs showing photoablation of meningeal lymphatic vessels. […] (cisterna magna) with 2 μl of Visudyne, which was activated using 690 nm laser of multiphoton microscope through thin skull. Two hours after the ablation, the meninges were collected and stained for lymphatic endothelial cell (Lyve-1) and blood vessels (laminin).

[4] = tested on: meningeal lymphatic vessels; assay: Visudyne meningeal lymphatic ablation, Aβ42 drainage and efflux (Example 1); assay type: in vivo, C57BL/6 mice; settings: vs vehicle
Method: Visudyne (verteporfin) or vehicle (as control) were injected into the cisterna magna (intra-cisterna magna, ICM) of anesthetized adult C57BL/6 mice (3 months of age), followed by a photoconversion step that was achieved by shining a non-thermal red light (689 nm) in 5 points above the skull. 7 days after the initial procedure, Aβ42-HiLyte647 (1 μg) was stereotaxically injected (coordinates from bregma, AP=+1.5 mm, ML=−1.5 mm, DV=+2.5 mm) into the brain parenchyma. 1 h post injection, mice were transcardially perfused with saline and meninges, deep cervical lymph nodes (dcLNs) and brain were collected for analysis. Meningeal whole-mounts (scale bar, 1 mm) from vehicle (FIG. 23A) or visudyne (FIG. 23B) injected groups were stained for lymphatic vessel, endothelial hyaluronan receptor 1 (LYVE-1, green) and the blood vascular endothelial cell marker CD31 (red). Visudye alone is shown in the inset in the upper right corner of FIGS. 23A and 23B. […] Aβ42 alone is shown in the inset in the upper right corner of each of FIGS. 23E and 23F, and LYVE-1 alone is shown in the inset in the lower right corner of each of FIGS. 23E and 23F. Coronal brain sections (100 μm thick), both rostral and caudal to the injection site, were stained for glial fibrillary acidic protein (GFAP). […] Results are presented as mean±s.e.m. in FIGS. 23C, D, and G; n=6 in vehicle group and n=5 in visudyne group; *P<0.05. **P<0.01, one-tailed Mann-Whitney test; representative of 2 independent experiments).

## verteporfin [Visudyne]
Meningeal lymphatic
  lymphatic drainage into the cervical lymph nodes after ablation: alteration of lymphatic drainage
[1]
  influx of a CSF tracer (OVA-A647) into the brain: does not further aggravate
Meningeal lymphatics
  effect on the blood vessels (CD31): No effect on the blood vessels
  meningeal lymphatics in superior sagittal and transverse sinuses (Lyve-1, Prox1): Disruption of lymphatics
Nasal lymphatics
  nasal lymphatic bundle at the base of the skull: gets ablated
[2]
  area occupied by Aβ aggregates in meningeal whole-mounts: significant increase in aggregates
[3]
  effect on the blood vessels (laminin): No effect on the blood vessels was observed
  lymphatic vessels at the area of ablation (superior sagittal sinus): Disruption of lymphatic vessels is evident
  lymphatic vessels in transverse sinuses: trend to disruption
[4]; 1 h after Aβ42-HiLyte647 (1 μg) injection into brain parenchyma, 7 days post ablation
  drainage of Aβ42 in dcLNs: significantly less drainage
[4]; 1 h after Aβ42-HiLyte647 injection, 7 days post ablation
  efflux of Aβ42 from the brain (area fraction occupied by the fluorescent peptide): decreased efflux
[4]; visudyne ICM + photoconversion 689 nm, adult mice, 7 days after
  area of LYVE-1+ vessels (meningeal whole-mounts): significant decrease
[4]; visudyne ICM + photoconversion, 7 days after
  coverage by CD31+ vessels (meningeal whole-mounts): no changes
